Source: patent US10912850B2, “18F-FNDP for pet imaging of soluble epoxide hydrolase (sEH)” (THE JOHNS HOPKINS UNIVERSITY, priority 2016, dated 2021)
Where “and” joins values, the source holds several entries; their conditions need not be identical. Equal entries are not always repeated. Where two headings read alike, the source gives them in different places. One block for each compound: values may come before it.

What was measured:
[1] = Molecular properties (log P); assay type: physicochemical
sEH [2] = assay: Baboon dynamic PET imaging, baseline and blocking (SUV, VT, K1); conditions: for Time of regional TAC peak: post-injection; for Average K1 (rate constant for transfer from arterial plasma to tissue): two-tissue-three-compartment model
Protocol: Dynamic baseline and blocking PET experiments (90 min) were performed on three male baboons (Papio anubis) weighing 23.9, 25.0 and 28.2 kg, using the High Resolution Research Tomograph (HRRT, CPS Innovations, Inc., Knoxville, Tenn.). […] Radiometabolite analysis in baboon arterial blood was performed under the general conditions published previously (Hilton et al., Nucl. Med. Biol., 2000).
PET experiments were performed on a male baboon (Papio anubis) weighing 28.2 kg, using the High Resolution Research Tomograph (HRRT, CPS Innovations, Inc., Knoxville, Tenn.). The animal underwent one baseline PET scan and one blocking scan 3 weeks later. The animal was fasted for 12 h prior to each PET study. Anesthesia was induced with intramuscular ketamine (7.5-10 mg/kg) and maintained with a continuous intravenous infusion of propofol at 0.3-0.4 mg/kg/min throughout the PET experiment. One venous catheter was inserted for the radioligand injection, and one arterial catheter inserted to obtain arterial blood samples. Measurement of the arterial plasma input function was conducted through collection of 43 blood samples over the course of the 90 min dynamic PET scan. The baboon was also intubated to facilitate respiration, and circulatory volume was maintained by constant infusion of isotonic saline. Physiological vital signs including heart rate, blood pressure, electrocardiogram, and oxygen saturation were monitored continuously throughout the study.
The animal was positioned in the PET scanner with the head immobilized with a thermoplastic mask. A 6 min transmission scan was acquired using a rotating [^137Cs] cesium source for attenuation correction.
The 90 min PET list mode data were binned into 22 frames (three 20 s, two 30 s, two 1 min, three 2 min, eight 5 min, and four 10 min frames). The data were then reconstructed using the iterative ordered subsets expectation maximization (OS-EM) algorithm (with six iterations and 16 subsets), with correction for radioactive decay, dead time, attenuation, scatter and randoms. The attenuation maps were generated from 6 min transmission scans performed with a [^137Cs] cesium point source prior to the emission scans. The reconstructed image space consisted of cubic voxels, each 1.22 mm^3 in size, and spanning dimensions of 31 cm×31 cm (transaxially) and 25 cm (axially).
The software package PMOD (v3.3, PMOD Technologies Ltd, Zurich, Switzerland) was used for the following image processing and subsequent kinetic analysis steps. The previously acquired brain MRI T1-weighted images for the baboon were co-registered to the reconstructed dynamic PET images acquired in this study. Through manually matching the co-registered MRI to the INIA19 Template and NeuroMaps Atlas for Primate Brain Image Parcellation and Spatial Normalization (Rohlfing et al., Frontiers in neuroinformatics, 2012), 13 representative baboon brain VOIs were defined, including frontal and temporal gyms, thalamus, hippocampus, caudate, putamen, amygdala, globus pallidus, insula, hypothalamus, cerebellum, corpus callosum, and white matter. Brain regional TACs were then generated for both baseline and blocking PET scans using those VOIs.
Following the consensus nomenclature for in vivo imaging of reversibly binding radioligands (Innis et al., J. Cereb. Blood Flow Metab., 2007), due to the lack of a non-displaceable reference region, the main outcome measure was regional distribution volume (VT), defined as the ratio of the concentration of the radioligand in regional brain tissue to that in plasma at equilibrium. Regional VT is proportional to the receptor density in the defined VOL VT was calculated using the Logan graphical method for each VOI (Logan et al., J. Cereb. Blood Flow Metab., 1990).

sEH [3] = target: T1, sEH (Mus musculus, UniProt P34914); assay: Blocking of 18F-FNDP binding in CD-1 mice with nor-fluoro-FNDP (dose escalation); assay type: in vivo
T1 construct: from tissue; host or cells: brain of living CD-1 mice (striatum, cortex, hippocampus, cerebellum)
T1 sequence (P34914 1-554): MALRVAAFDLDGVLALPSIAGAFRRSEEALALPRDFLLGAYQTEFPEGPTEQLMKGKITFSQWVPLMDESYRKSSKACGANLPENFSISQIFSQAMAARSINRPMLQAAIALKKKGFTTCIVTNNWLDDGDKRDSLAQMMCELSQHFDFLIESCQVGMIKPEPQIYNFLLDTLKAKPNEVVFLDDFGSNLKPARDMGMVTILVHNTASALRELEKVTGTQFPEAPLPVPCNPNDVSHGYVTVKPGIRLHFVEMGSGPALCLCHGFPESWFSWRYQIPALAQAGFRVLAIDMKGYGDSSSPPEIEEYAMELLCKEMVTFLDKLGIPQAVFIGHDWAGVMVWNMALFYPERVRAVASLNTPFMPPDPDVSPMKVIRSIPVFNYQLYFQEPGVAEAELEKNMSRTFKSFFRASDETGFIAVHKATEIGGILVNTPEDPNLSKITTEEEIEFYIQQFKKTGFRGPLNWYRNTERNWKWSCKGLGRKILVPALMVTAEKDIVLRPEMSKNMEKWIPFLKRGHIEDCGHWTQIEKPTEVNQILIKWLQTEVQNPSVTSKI
Protocol: Ninety minutes after administration of the radiotracer the animals were sacrificed by cervical dislocation, brain tissues were harvested, and their radioactivity content was determined.

sEH [4] = assay type: in vivo, mice (sEH-KO, C57BL/6); conditions: for Regional uptake, baseline: C57BL6 control mice, 60 min post-injection
Protocol: All animals were sacrificed at 60 min after radiotracer injection.

[5] = Radiometabolite HPLC analysis of baboon arterial plasma; assay type: in vivo, Papio anubis (baboon); conditions: 90 min post-injection
Protocol: Baboon arterial blood samples were collected at very short intervals (<5 s) initially and gradually at prolonged intervals throughout the PET study for determination of plasma radioactivity. […] Med. Biol., 2000). […] The effluent from the capture column, containing only highly polar components, flowed through a dual BGO detector (Bioscan, Washington, D.C.). The solvent was then switched to a mixture of 60% acetonitrile/40% 0.1 M aqueous ammonium formate pH=2.7 (2 mL/min) to elute the radiolabeled components bound to the capture column onto the analytical column (Gemini C18, 4.6×254 mm, Phenomenex, Torrance, Calif.).

[6] = Baseline regional brain biodistribution of 18F-FNDP in CD-1 mice; assay type: in vivo; conditions: for Regional distribution in CD-1 mouse brain (mean % ID/g tissue ± SD): n=3
Protocol: Baseline study in CD1 mice. […] The brains were removed and dissected on ice. Striatum, cortex, hippocampus, hypothalamus, cerebellum and the rest of brain were weighed and their radioactivity content was determined in a γ-counter LKB/Wallac 1283 CompuGamma CS (Perkin Elmer, Bridgeport, Conn.). Aliquots of the injectate were prepared as standards and their radioactivity content was determined along with the tissue samples. The percent of injected dose per gram of tissue (% ID/g tissue) was calculated.

log P [1]: 2.9
SMILES: O=C(NCCC(c1ccccc1)c1ccccc1)c1ccc(F)nc1 [FNDP, N-(3,3-diphenylpropyl)-6-fluoronicotinamide]

SMILES: O=C(NCCC(c1ccccc1)c1ccccc1)c1ccc([18F])nc1 [^18F-FNDP, N-(3,3-diphenylpropyl)-6-^18F-fluoronicotinamide]
Blockade of brain uptake (sEH [2]; baboon PET, all regions): 95%
Time of regional TAC peak (sEH [2]; baboon blocking study (nor-fluoro-FNDP 2 mg/kg s.c.)): about 1 min
Average SUV at the end of the scan (sEH [2]; baboon blocking study, end of 90 min scan): 0.18 g/mL
Brain SUV (sEH [2]; baboon brain): 4
Time of regional TAC peak (sEH [2]; baboon brain, baseline scan): about 5 min
Peak SUV of the entire brain (sEH [2]; baboon, baseline scan): 3.2
SUV of the entire brain at the end of the scan (sEH [2]; baboon, baseline, end of 90 min dynamic scan): 1.8
Average K1 (rate constant for transfer from arterial plasma to tissue) (sEH [2]; baboon, baseline): 0.18 ml/cm^3/min
Average K1 (rate constant for transfer from arterial plasma to tissue) (sEH [2]; baboon, blocking): 0.14 ml/cm^3/min
Reduction of VT, blocking vs baseline (sEH [2]; baboon, cerebellum): 93%
Average SUV at end of blocking scan as percent of the baseline value (sEH [2]; baboon, end of 90 min scan): 10%
Reduction of VT, blocking vs baseline (sEH [2]; baboon, insula and amygdala): 95%
Specificity of sEH radiolabeling (sEH [2]; both animal species (mouse and baboon)): up to 95%
Residual (non-specific) binding at the high dose of the blocker (sEH [3]; CD-1 mouse brain, blocker nor-fluoro-FNDP): 10%
Blockade of uptake (sEH [3]; mice, all brain regions, pre-treatment with sEH inhibitor): 80-90%
Degree of specificity of cerebral sEH labeling (sEH [3]; two strains of control mice (CD-1 and C57BL/6)): 80-90%
Regional uptake, baseline (sEH [4]; cerebellum): 0.5 % ID/g
Regional uptake, baseline (sEH [4]; striatum, hippocampus and cortex): about 1 % ID/g
Brain uptake, blocking experiment (sEH [4]; C57BL6 mice, all regions studied, nor-fluoro-FNDP 1 mg/kg s.c., 60 min): ~0.2 % ID/g tissue
Blocking effect (sEH [4]; C57BL/6 controls, nor-fluoro-FNDP 1 mg/kg s.c.): about 80%
Reduction of uptake in sEH-KO mice as compared with controls (sEH [4]; baseline, 60 min after radiotracer injection, C57BL/6 controls): about 90%
Radiotracer uptake in sEH-KO mice (sEH [4]; sEH-KO mice): Minimal
Regional brain uptake, baseline (sEH [4]; sEH-KO mice, 60 min): 0.11-0.12 % ID/g
Reduction of uptake in blockade study (sEH [4]; sEH-KO mice, blocker nor-fluoro-FNDP): negligible
Regional brain uptake, blocking (sEH [4]; sEH-KO mice, nor-fluoro-FNDP 1 mg/kg s.c., 60 min): 0.10-0.11 % ID/g
Brain uptake in sEH-KO mice lower than in controls (sEH [4]; sEH-KO vs controls): 10 fold
Parent compound remaining in plasma [5]: 20%
Peak brain uptake ([6]; CD-1 mice, at peak uptake): 5.2 percent injected dose per gram of tissue
Regional distribution in CD-1 mouse brain (mean % ID/g tissue ± SD) ([6]; Cerebellum, 5 min): 2.75 ± 0.11 % ID/g tissue
Regional distribution in CD-1 mouse brain (mean % ID/g tissue ± SD) ([6]; Cerebellum, 15 min): 1.31 ± 1.01 % ID/g tissue
Regional distribution in CD-1 mouse brain (mean % ID/g tissue ± SD) ([6]; Cerebellum, 30 min): 1.09 ± 0.16 % ID/g tissue
Regional distribution in CD-1 mouse brain (mean % ID/g tissue ± SD) ([6]; Cerebellum, 60 min): 0.52 ± 0.07 % ID/g tissue
Regional distribution in CD-1 mouse brain (mean % ID/g tissue ± SD) ([6]; Cerebellum, 90 min): 0.29 ± 0.04 % ID/g tissue
Regional distribution in CD-1 mouse brain (mean % ID/g tissue ± SD) ([6]; Cortex, 5 min): 4.69 ± 0.21 % ID/g tissue
Regional distribution in CD-1 mouse brain (mean % ID/g tissue ± SD) ([6]; Cortex, 15 min): 2.92 ± 0.36 % ID/g tissue
Regional distribution in CD-1 mouse brain (mean % ID/g tissue ± SD) ([6]; Cortex, 30 min): 2.07 ± 0.05 % ID/g tissue
Regional distribution in CD-1 mouse brain (mean % ID/g tissue ± SD) ([6]; Cortex, 60 min): 0.87 ± 0.14 % ID/g tissue
Regional distribution in CD-1 mouse brain (mean % ID/g tissue ± SD) ([6]; Cortex, 90 min): 0.45 ± 0.05 % ID/g tissue
Regional distribution in CD-1 mouse brain (mean % ID/g tissue ± SD) ([6]; Hippocampus, 5 min): 3.29 ± 0.54 % ID/g tissue
Regional distribution in CD-1 mouse brain (mean % ID/g tissue ± SD) ([6]; Hippocampus, 15 min): 2.51 ± 0.34 % ID/g tissue
Regional distribution in CD-1 mouse brain (mean % ID/g tissue ± SD) ([6]; Hippocampus, 30 min): 1.76 ± 0.15 % ID/g tissue
Regional distribution in CD-1 mouse brain (mean % ID/g tissue ± SD) ([6]; Hippocampus, 60 min): 0.81 ± 0.15 % ID/g tissue
Regional distribution in CD-1 mouse brain (mean % ID/g tissue ± SD) ([6]; Hippocampus, 90 min): 0.43 ± 0.06 % ID/g tissue
Regional distribution in CD-1 mouse brain (mean % ID/g tissue ± SD) ([6]; Hypothalamus, 5 min): 2.59 ± 0.18 % ID/g tissue
Regional distribution in CD-1 mouse brain (mean % ID/g tissue ± SD) ([6]; Hypothalamus, 15 min): 1.66 ± 0.28 % ID/g tissue
Regional distribution in CD-1 mouse brain (mean % ID/g tissue ± SD) ([6]; Hypothalamus, 30 min): 1.04 ± 0.08 % ID/g tissue
Regional distribution in CD-1 mouse brain (mean % ID/g tissue ± SD) ([6]; Hypothalamus, 60 min): 0.51 ± 0.07 % ID/g tissue
Regional distribution in CD-1 mouse brain (mean % ID/g tissue ± SD) ([6]; Hypothalamus, 90 min): 0.31 ± 0.05 % ID/g tissue
Regional distribution in CD-1 mouse brain (mean % ID/g tissue ± SD) ([6]; Rest of brain, 5 min): 3.53 ± 0.11 % ID/g tissue
Regional distribution in CD-1 mouse brain (mean % ID/g tissue ± SD) ([6]; Rest of brain, 15 min): 2.37 ± 0.34 % ID/g tissue
Regional distribution in CD-1 mouse brain (mean % ID/g tissue ± SD) ([6]; Rest of brain, 30 min): 1.64 ± 0.06 % ID/g tissue
Regional distribution in CD-1 mouse brain (mean % ID/g tissue ± SD) ([6]; Rest of brain, 60 min): 0.71 ± 0.10 % ID/g tissue
Regional distribution in CD-1 mouse brain (mean % ID/g tissue ± SD) ([6]; Rest of brain, 90 min): 0.38 ± 0.04 % ID/g tissue
Regional distribution in CD-1 mouse brain (mean % ID/g tissue ± SD) ([6]; Striatum, 5 min): 5.24 ± 0.45 % ID/g tissue
Regional distribution in CD-1 mouse brain (mean % ID/g tissue ± SD) ([6]; Striatum, 15 min): 3.29 ± 0.36 % ID/g tissue
Regional distribution in CD-1 mouse brain (mean % ID/g tissue ± SD) ([6]; Striatum, 30 min): 2.32 ± 0.15 % ID/g tissue
Regional distribution in CD-1 mouse brain (mean % ID/g tissue ± SD) ([6]; Striatum, 60 min): 1.07 ± 0.14 % ID/g tissue
Regional distribution in CD-1 mouse brain (mean % ID/g tissue ± SD) ([6]; Striatum, 90 min): 0.54 ± 0.07 % ID/g tissue
Peak brain uptake value ([6]; mouse brain, peak (5 min post-injection)): 5.2 % ID/g and 5 % ID/g
